The subject of data set [1] is Colo357 cells. As to the kind of experiment: Measurement of GSH level (GSH-Glo). Particulars: 100 μM, FIG. 8(A). Format: cell-based. Here is the method:
(§1) Cells were seeded in 96-well black walled plate (5×10^4 cells/mL) and incubated overnight for attachment. The cells were treated either with vehicle, DMSO, BCNU 100 μM, S-methyl 4-(dimethylamino)-4-methylpent-2-ynethioate 20 μM, for 24 hours. The total glutathione was measured according to the instructions of the kit (GSH-Glo™, Promega) and results were obtained for 25 000 cells.

Another data set relates to HL-60 (leukemia). As to the kind of experiment: Alamar blue growth inhibition, cell line HL60. Type of data set: cell-based. Conditions: Homo sapiens. Here is the method: (§2) Cells were seeded into 96-well cell culture plates at concentrations required to ensure approximately 80% confluence in control (untreated cells) at the end of experiment (0.5×10^4-5×10^4 cell/well). The sensitivity towards S-methyl 4-(dimethylamino)-4-methylpent-2-ynethioate was determined using different concentrations of the drug (from 0.01 to 100 μM). After 48 hours, the growth-inhibitory effect of the drug was analyzed using Alamar blue, according to manufactures instructions. The Alamar Blue assay was used based on earlier observations: similar results were found with Alamar blue, tetrazolium reduction (XTT assay). To ensure good data quality and to minimize impact of pipetting errors, each particular drug concentration was assessed based on mean fluorescence intensity from 8 separate wells. The drug response was quantified by the half maximal inhibitory concentration (IC50) for each particular cell line, and determined by non-linear regression analysis of log-dose/response curves. Cut-off value for resistance to S-methyl 4-(dimethylamino)-4-methylpent-2-ynethioate was determined statistically (>2 S.D. above the IC50 geometric mean). The in-vitro threshold value for hypersensitivity to the drug has been defined as <IC50 geometric mean.
(§3) In addition, other compounds according to the invention were tested by following the above mentioned material and method on the cell line DU145 (prostatic cancer line) and the cell line HL60 (leukemia) mentioned in Table 2.
(The colour change of resazurin is a common sign of viable cells or microbes.)

For data set [2], the system named is DU145 (prostatic cancer line). As to the kind of experiment: Alamar blue growth inhibition, cell line DU145. Type of data set: cell-based. Conditions: Homo sapiens, DU-145. Here is the method: as §2, §3
For data set [3] the following is noted: Aruoma et al 1989; cited from earlier work.
Data set [4] relates to HL-60 cells. As to the kind of experiment: Measurement of GSH level (GSH-Glo). Type of data set: cell-based, human. Conditions: HL-60 cells treated with 2.5 mM NAC; FIG. 6(B). The protocol: as §1
The conditions of data set [5]: Aruoma et al 1989; cited from earlier work. This is another data set of the same source.
The next data set deals with HL60 cancers cells. As to the kind of experiment: Measurement of H2O2 production (Total ROS/superoxide detection kit). Type of data set: cell-based, human. Particulars: FIG. 6(A). The protocol:
Intracellular H2O2 production in live cells was measured using Total ROS/superoxide detection kit (Enzo life science), following the manufacturer's instructions. The assay uses specific H2O2/RNS probes that upon reaction with H2O2 and RNS species were oxidized rapidly to highly fluorescent compounds. Fluorescence intensity is proportional to the total H2O2/RNS levels within the sample. […] The day before the analysis, cells were seeded in 96-well black/clear bottom plates at a density of 2×10^4 in culture media according to cell suppliers instructions, supplemented with FBS (10% v/v), 10 units of penicillin/mi and […] of streptomycin. Cells were kept at 37° C. in a humid atmosphere of 95% air: 5% CO2 overnight. On the day of the analysis, cells media was replaced by 100 μL of phenol free-media supplemented as above, without any treatment, with S-methyl 4-(dimethylamino)-4-methylpent-2-ynethioate for 6 hours, vehicle HEPES for 6 hours, or with NAC for 20 min. […] Several wells were left without cells for the background fluorescence control measurements. Plates were read using fluorescence microplate reader (ex=560 nm, Em=600). Data were expressed as the change in arbitrary fluorescence units produced from equal amounts of cells and normalized to total protein input.

A further data set concerns normal cells. As to the kind of experiment: Selectivity control on normal cells. Type of data set: cell-based, human. Particulars: same method as cancer cells. Here is the method:
as §2, with “mean. […]” for “mean.”

Data set [6] deals with HL-60 cells. The experiment in a line: Viability of HL-60 cells with NAC or GSH-MEE (induction of resistance). Type of data set: cell-based. Here is the method:
To revert S-methyl 4-(dimethylamino)-4-methylpent-2-ynethioate-induced cell death, drug sensitive cells HL-60 were exposed to S-methyl 4-(dimethylamino)-4-methylpent-2-ynethioate (10 μM) in the presence of the reduced glutathione analog Glutathione Monoethyl Ester (GSH-MEE) at concentrations 10 mM or S-methyl 4-(dimethylamino)-4-methylpent ynethioate in combination. HL-60 were seeded, into 96-wells plate, at a concentration of 5×10^4 cells/well in 100 μL of complemented medium supplemented with Glutathione Monoethyl Ester (GSH-MEE) 10 mM. After 90 minutes incubation, cells were washed with PBS and cells were incubated using different concentrations of the drug (from 0.01 to 100 μM). After 24 h and 48 h cell viability was measure using the Rezasurin assay as described above.

Data set [7] concerns cancer cell lines which overproduce H2O2. As to the kind of experiment: Viability assay (resazurin, XTT or MTT) on various cancer cell lines. Format: cell-based, human. Conditions: FIG. 1. The protocol: A panel of 52 human tumor cells representing 10 tissue types has been selected to cover a broad set of different oncogenes and according to their response to different standard chemotherapeutics. […]
as §2, with “The Alamar Blue assay was used based on earlier observations: similar results were found with Alamar blue, tetrazolium reduction (XTT assay).” left out, “The in-vitro threshold value for hypersensitivity to the drug has been defined as <IC50 geometric mean.” left out

For data set [8], the system named is sensitive cells (HL-60, NT2/D1). As to the kind of experiment: MDA-adducts ELISA, sensitive cells. Format: cell-based, human. Particulars: 5 or 10 μmol·L^−1 during 24 hours, FIG. 10. The protocol: (§4) The formation of HNE-adducts and MDA-adducts was quantified with the Oxiselect HNE Adduct Elisa kit (Cell Biolabs, San Diego, Calif.) and the OxiSelect MDA Adduct ELISA Kit (Cell Biolabs), respectively. Briefly, after a treatment with S-methyl 4-(dimethylamino)-4-methylpent-2-ynethioate during 24 hours, cells were lysed by sonication in reducing SDS Sample Buffer. Homogenates were diluted to 10 μg protein/mL and adsorbed in 96-well protein binding plates by incubation at 37° C. for at least 2 hours. Wells were washed twice with PBS and incubated for an additional 2 hours at room temperature on an orbital shaker. Following three washes in PBS, 100 μL of anti-HNE antibody or anti-MDA antibody were added to the wells and incubated for 1 hour at room temperature. Subsequently, goat anti-rabbit secondary antibody-HRP conjugate (diluted 1/1000 with the assay diluent) was added and incubation continued for 1 hour. Wells were washed five times in PBS and HRP-substrate was added. Reaction was stopped with an acidic solution, and absorbance read on a microplate reader at 450 nm. The level of HNE-adducts and of MDA-adducts was determined by comparison with a standard curve prepared from HNE-BSA and MDA-BSA standards supplied by the manufacturer. […]
On the technique in general: In an ELISA, binding on a coated surface is turned into a signal by an enzyme label.

The subject of data set [9] is Colo357 cells. The experiment in a line: Viability of Colo357 cells treated with BCNU. Type of data set: cell-based. Particulars: Colo357 cells treated with 100 μM carmustine (BCNU); FIG. 8(B).
Data set [10] has as its system HPF (Human Pulmonary fibroblasts). The experiment in a line: Alamar blue growth inhibition, normal human primary cells. Format: cell-based. Conditions: Pulmonary fibroblast, 48 hours. The protocol: as §2
(§5) In addition, to control the selectivity of the S-methyl 4-(dimethylamino)-4-methylpent-2-ynethioate toward cancer cells, the compound according to the invention was also tested on normal cells by using the same method as the one described above.

The test system of data set [11] is huvec (Human umbilical vein endothelial cells). The description is as above. Particulars: 48 hours. Format: cell-based. The protocol: as §2, §5
The test system of data set [12] is NHEM (Normal Human epidermal melanocytes). The description is as above. Type of data set: cell-based. Particulars: Melanocyte, 48 hours. Here is the method: as §2, §5
The subject of data set [13] is hMCSs-BM (Human mesenchymal stem cells from bone marrow). Described as above. Type of data set: cell-based. Conditions: 48 hours. Here is the method:
as §2, §5

Data set [14] concerns BEAS-2B (Human bronchial epithelial cells). Described as above. Format: cell-based. Conditions: 48 hours. Here is the method: as §2, §5
In data set [15] the test system is resistant cells (MSC). The experiment in a line: MDA-adducts ELISA, resistant cells. Format: cell-based, human. Conditions: 5 or 10 μmol·L^−1 during 24 hours, FIG. 10. Here is the method:
as §4

Data set [16] relates to sensitive cells (HL-60, NT2/D1). As to the kind of experiment: HNE-adducts ELISA, sensitive cells. Type of data set: cell-based, human. Particulars: 5 or 10 μmol·L^−1 during 24 hours, FIG. 10. The protocol:
as §4

Data set [17] deals with resistant cells (MSC). The experiment in a line: HNE-adducts ELISA, resistant cells. Type of data set: cell-based, human. Particulars: 5 or 10 μmol·L^−1 during 24 hours, FIG. 10. Here is the method:
as §4

Consider `O=NN(CCCl)C(=O)NCCCl` [carmustine], for which the “decrease of the GSH level” value in the data set with Colo357 cells [1] amounted to 50%.

A word on the IC50: it is the concentration needed to halve the response being measured. A lower IC50 goes with greater potency in that assay. Take `CSC(=O)C#CC(C)(C)N(C)Cc1ccccc1` [S-methyl 4-[benzyl(methyl)amino]-4-methylpent-2-ynethioate]: the concentration for half-maximal inhibition (IC50) was 10.4 µM with HL-60 (leukemia) and 1.4 µM in data set [2].

Regarding `CC(=O)N[C@@H](CS)C(=O)O` [NAC, N-acetyl-L-cysteine], the “rate constant, reaction with hydrogen peroxide” value in data set [3] was 0.38 M^−1, s^−1. In addition, the “amount of GSH level” value in the data set on HL-60 cells [4] is “significantly increased”. Moreover, in data set [5], the “rate constant, scavenging of hydroxy radicals” value is 1.36×10^10 M^−1,s^−1.

Turning to `CSC(=O)C#CC(C)(C)N(C)C` [S-methyl 4-(dimethylamino)-4-methylpent-2-ynethioate], the “H2O2 activity level in Relative Fluorescence Unit (RFU)” value in the data set with HL60 cancers cells (HL60, 5 μM for 24 hours) was “increased”; in the data set with HL60 cancers cells (HL60, treatment in addition with 2.5 mM N-acetyl-Cysteine (NAC)) it was “no H2O2 increase”. The half-inhibitory concentration (IC50) was 7.6 µM in the data set with HL-60 (leukemia); > 100 µM in data set [10]; > 50 µM in [11]; > 100 µM in [12]; > 50 µM in data set [13]; > 50 µM in data set [14]. In data set [2], this compound gave a concentration for half-maximal inhibition (IC50) of 7.2 µM. Also, the “effect on normal cells” value in the data set with normal cells was “no effect”. Also, in the data set on HL-60 cells [6] (5, 10 μmol·L-1 and 2.5 mM NAC, FIG. 6(C)), the “viability of HL-60 cells” value is recorded as “inhibition of efficacy”. Moreover, the “cytotoxic effect on HL-60 cells” value with HL-60 cells [6] (after pre-treatment of 10 mM GSH-MEE, FIG. 7) is given as “no more effective”. For the same compound, in data set [7], the “efficacy in cancer cell lines (viability assay)” value is listed as “effective”. In addition, the MDA-adducts level result in [8] is “above 100 ng per μg of total protein”; in the data set with resistant cells (MSC) [15], < 100 ng per μg of total protein. This compound also had a decrease of viability with Colo357 cells [9] of 50%. In addition, the HNE-adducts level in data set [16] is > 1 μg per μg of total protein; in the data set on resistant cells (MSC) [17], < 1 μg per μg of total protein.

Take `CSC(=O)C#CC(C)(C)N1CCCCC1` [S-methyl 4-methyl-4-(piperidin-1-yl)pent-2-ynethioate]: the 50% inhibitory concentration (IC50) with HL-60 (leukemia) turned out to be 7.21 µM; in data set [2], 22 µM.

For the compound `CSC(=O)C#CC(C)(C)N1CCOCC1` [S-methyl 4-methyl-4-(morpholin-4-yl)pent-2-ynethioate], the half-maximal inhibitory concentration (IC50) in the data set on HL-60 (leukemia) was 30 µM; in [2], 9.3 µM.

Consider `CSC(=O)C#CC(C)(C)N(C)c1ccccc1` [S-methyl 4-methyl-4-[methyl(phenyl)amino]pent-2-ynethioate], for which the 50% inhibitory concentration (IC50) with HL-60 (leukemia) amounted to 24.8 µM; in data set [2], 12.5 µM.

The record behind these values is patent US20230149378A1, “Aminothiolester compounds or pharmaceutically acceptable salts thereof, for use for the treatment of cancer” (ADVANCED BIODESIGN, priority 2015, published 2023).
